Read-outs that look alike come from different tables or passages of the source.
What was measured:
[1] = biological target: T1, PIK3Cg_h (Homo sapiens, UniProt P48736); experiment: Enzyme binding assay (KINOMEscan); conditions: Eurofins DiscoveRx
T1 construct: purchased Eurofins DiscoveRx Corporation
Procedure: (§1) Kinase enzyme binding affinities of compounds disclosed herein were determined using the KINOMEscan technology performed by Eurofins DiscoveRx Corporation, San Diego, California, USA (www.eurofinsdiscoveryservices.com). Table 2 reports the obtained PIK3β Kd values (nM) of, with the PIK3β Kd being the inhibitor binding constant. Table 3 reports the obtained Kd values (nM), with the Kd being the inhibitor binding constant: […]

[2] = biological target: T2, PIK3Cd_h (Homo sapiens, UniProt O00329); experiment: Enzyme binding assay (KINOMEscan); conditions: Eurofins DiscoveRx
T2 construct: purchased Eurofins DiscoveRx Corporation
T2 sequence (O00329 1-1044): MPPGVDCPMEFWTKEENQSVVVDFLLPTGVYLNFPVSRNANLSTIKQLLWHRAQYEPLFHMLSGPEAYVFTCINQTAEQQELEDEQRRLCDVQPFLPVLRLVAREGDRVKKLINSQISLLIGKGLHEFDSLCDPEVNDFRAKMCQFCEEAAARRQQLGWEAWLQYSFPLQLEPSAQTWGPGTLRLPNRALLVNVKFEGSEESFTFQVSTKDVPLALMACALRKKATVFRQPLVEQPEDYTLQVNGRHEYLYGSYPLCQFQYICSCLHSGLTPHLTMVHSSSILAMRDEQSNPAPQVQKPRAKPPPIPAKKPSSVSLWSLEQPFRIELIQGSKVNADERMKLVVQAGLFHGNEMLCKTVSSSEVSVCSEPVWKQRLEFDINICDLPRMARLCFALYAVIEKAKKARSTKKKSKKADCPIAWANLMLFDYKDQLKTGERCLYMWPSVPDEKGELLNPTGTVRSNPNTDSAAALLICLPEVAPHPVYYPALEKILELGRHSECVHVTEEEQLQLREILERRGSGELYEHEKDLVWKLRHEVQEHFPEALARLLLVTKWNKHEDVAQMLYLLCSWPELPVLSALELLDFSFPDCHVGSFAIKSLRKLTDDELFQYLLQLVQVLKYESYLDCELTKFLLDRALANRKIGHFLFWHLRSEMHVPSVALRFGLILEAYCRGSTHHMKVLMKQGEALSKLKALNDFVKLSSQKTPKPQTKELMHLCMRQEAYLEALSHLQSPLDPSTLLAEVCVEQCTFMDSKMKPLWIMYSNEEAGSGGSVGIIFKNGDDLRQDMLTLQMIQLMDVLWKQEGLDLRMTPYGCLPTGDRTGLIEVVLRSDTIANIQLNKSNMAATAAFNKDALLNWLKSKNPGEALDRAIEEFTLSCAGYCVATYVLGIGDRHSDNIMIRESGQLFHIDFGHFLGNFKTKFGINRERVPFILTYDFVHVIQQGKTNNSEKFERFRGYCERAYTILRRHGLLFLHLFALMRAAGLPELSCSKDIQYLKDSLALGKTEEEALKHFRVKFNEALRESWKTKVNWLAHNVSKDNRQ
Procedure: as §1

[3] = biological target: T3, PIK3Ca_h (Homo sapiens, UniProt P42336); experiment: Enzyme binding assay (KINOMEscan); conditions: Eurofins DiscoveRx
T3 construct: purchased Eurofins DiscoveRx Corporation
Procedure: as §1

[4] = biological target: T4, PIK3Cb_h (Homo sapiens, UniProt P42338); experiment: Enzyme binding assay (KINOMEscan); conditions: Eurofins DiscoveRx
T4 construct: purchased Eurofins DiscoveRx Corporation
Procedure: as §1

[5] = test system: phosphorylation of AKT in HCC70 cells; experiment: Cellular assay: phosphorylation of AKT in HCC70 cells (western blotting); format: cell-based; conditions: Homo sapiens, HCC70, 1 h, HCC70 cells, compound 500 nM, 60 min, inhibition of Akt activity from band intensities
Method in brief: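 HCC70 cells treated with compound at 500 nM (0.1% DMSO control) for 60 min at 37 °C; pAKT Ser473 and Thr308 plus total AKT measured by western blot with fluorescent detection. Inhibition from band intensities, binned as + (20–60%), ++ (60–80%), +++ (80–90%), ++++ (>90%).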

[6] = read-out: Index of AI (HCC70) p-AKT Thr 308
[7] = read-out: Index of AI (HCC70) p-AKT ser 473

T3 sequence (P42336 whole entry): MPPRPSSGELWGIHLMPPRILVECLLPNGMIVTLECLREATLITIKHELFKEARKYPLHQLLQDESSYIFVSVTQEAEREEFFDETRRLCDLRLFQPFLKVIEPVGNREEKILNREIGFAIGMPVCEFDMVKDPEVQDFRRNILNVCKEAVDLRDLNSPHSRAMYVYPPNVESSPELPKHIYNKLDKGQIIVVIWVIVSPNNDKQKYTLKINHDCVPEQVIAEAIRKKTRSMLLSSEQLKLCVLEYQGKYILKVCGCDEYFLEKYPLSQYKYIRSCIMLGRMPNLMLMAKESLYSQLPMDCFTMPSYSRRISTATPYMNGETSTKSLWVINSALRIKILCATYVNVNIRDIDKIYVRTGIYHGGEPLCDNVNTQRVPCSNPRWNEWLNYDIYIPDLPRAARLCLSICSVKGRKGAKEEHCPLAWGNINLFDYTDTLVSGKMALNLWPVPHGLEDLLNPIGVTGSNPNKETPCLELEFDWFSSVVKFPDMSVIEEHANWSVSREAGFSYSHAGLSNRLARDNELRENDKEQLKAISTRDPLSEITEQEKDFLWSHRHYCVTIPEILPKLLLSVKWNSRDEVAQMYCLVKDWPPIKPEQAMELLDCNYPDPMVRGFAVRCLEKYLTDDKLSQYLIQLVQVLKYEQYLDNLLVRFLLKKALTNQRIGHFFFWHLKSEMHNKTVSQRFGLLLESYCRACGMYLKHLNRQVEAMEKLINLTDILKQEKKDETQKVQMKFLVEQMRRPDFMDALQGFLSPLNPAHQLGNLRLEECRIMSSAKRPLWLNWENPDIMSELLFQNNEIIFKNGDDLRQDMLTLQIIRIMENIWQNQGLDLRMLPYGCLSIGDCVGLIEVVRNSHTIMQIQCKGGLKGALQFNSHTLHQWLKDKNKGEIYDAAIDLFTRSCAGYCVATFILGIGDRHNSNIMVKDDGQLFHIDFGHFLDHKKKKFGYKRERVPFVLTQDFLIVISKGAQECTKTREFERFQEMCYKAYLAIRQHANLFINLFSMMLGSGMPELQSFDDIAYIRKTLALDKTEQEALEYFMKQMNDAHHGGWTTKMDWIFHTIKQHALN
T1 sequence (P48736 whole entry): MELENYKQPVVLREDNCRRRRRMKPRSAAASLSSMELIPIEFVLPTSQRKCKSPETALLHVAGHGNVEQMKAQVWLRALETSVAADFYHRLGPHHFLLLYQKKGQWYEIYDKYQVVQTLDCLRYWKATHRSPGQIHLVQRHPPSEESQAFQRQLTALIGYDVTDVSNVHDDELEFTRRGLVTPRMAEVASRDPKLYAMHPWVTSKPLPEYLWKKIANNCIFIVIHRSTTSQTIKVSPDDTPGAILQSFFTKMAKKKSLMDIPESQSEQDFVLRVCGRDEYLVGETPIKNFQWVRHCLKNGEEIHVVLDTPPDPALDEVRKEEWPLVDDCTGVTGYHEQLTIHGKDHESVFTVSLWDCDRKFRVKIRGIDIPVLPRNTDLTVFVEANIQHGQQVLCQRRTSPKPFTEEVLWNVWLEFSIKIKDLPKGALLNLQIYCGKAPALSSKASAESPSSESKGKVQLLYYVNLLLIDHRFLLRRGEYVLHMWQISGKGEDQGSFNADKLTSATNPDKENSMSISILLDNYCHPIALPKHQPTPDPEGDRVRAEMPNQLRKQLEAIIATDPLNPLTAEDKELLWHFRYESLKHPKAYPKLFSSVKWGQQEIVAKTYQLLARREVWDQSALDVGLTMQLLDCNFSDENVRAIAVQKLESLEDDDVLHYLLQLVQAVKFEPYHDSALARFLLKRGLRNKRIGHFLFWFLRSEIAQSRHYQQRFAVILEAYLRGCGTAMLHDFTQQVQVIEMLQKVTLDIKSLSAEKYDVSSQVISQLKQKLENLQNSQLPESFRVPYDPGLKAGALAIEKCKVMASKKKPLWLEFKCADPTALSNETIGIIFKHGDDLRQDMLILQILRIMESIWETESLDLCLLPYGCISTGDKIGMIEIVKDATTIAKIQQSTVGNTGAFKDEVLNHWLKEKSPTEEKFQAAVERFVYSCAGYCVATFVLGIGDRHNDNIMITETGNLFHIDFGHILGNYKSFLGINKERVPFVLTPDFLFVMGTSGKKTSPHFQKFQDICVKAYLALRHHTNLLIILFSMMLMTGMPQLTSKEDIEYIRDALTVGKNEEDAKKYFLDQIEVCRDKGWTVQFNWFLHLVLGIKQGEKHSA
T4 sequence (P42338 whole entry): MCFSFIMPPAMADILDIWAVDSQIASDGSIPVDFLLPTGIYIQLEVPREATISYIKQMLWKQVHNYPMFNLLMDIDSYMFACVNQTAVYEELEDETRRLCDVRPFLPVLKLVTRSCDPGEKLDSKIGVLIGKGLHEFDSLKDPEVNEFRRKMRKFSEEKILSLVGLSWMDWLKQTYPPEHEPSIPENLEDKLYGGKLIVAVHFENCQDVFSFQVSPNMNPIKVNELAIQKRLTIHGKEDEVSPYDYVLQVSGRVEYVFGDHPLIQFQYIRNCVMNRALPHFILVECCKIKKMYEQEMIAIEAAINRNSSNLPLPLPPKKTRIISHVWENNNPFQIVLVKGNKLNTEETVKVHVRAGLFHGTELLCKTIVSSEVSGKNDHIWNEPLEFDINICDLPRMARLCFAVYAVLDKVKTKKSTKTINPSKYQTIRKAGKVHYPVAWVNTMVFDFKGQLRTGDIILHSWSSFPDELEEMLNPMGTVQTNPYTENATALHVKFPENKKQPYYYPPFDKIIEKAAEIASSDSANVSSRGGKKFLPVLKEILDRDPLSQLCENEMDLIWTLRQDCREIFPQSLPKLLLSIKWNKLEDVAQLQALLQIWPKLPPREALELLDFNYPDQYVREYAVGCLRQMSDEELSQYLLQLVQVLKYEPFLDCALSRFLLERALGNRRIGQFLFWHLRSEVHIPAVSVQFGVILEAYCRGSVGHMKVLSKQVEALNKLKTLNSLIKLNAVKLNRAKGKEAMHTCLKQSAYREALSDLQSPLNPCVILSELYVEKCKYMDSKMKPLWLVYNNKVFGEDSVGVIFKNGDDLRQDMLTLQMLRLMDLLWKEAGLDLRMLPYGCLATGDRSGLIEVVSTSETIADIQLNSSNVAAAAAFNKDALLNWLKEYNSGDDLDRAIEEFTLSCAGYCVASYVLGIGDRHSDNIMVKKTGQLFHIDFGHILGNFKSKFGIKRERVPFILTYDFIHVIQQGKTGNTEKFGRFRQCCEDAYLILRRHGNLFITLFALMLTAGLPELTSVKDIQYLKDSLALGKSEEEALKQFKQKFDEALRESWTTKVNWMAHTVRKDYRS

Row | Structure (SMILES) | Kd [1] | Kd [2] | Kd [3] | Kd [4] | inhibition at 0.5 µM [5, 6] | inhibition at 0.5 µM [5, 7]
1 | CC(Nc1cc(F)cc(F)c1)c1cc(C(=O)N2CCC(N(C)C)C2)cn2c(=O)cc(N3CCOCC3)nc12 (single isomer, unassigned) [Compound 48-P1] | > 10000 nM | > 10000 nM | > 10000 nM | 400 nM |  | 
2 | CC(Nc1cc(F)cc(F)c1)c1cc(NC2=NC(C)(C)CO2)cc2c(=O)cc(N3CCOCC3)oc12 (stereo not shown) [Compound 21, 8-(1-((3,5-difluorophenyl)amino)ethyl)-6-((4,4-dimethyl-4,5-dihydrooxazol-2-yl)amino)-2-morpholino-4H-chromen-4-one] | 2200 nM | 58 nM | 45 nM | 0.31 nM | 80 to 90% | 80 to 90%
3 | CC1Cc2c(F)cccc2N1Cc1cc(C(=O)N(C)C)cc2c(=O)cc(N3CCOCC3)oc12 (stereo not shown) [Compound 33, 8-((4-fluoro-2-methylindolin-1-yl)methyl)-N,N-dimethyl-2-morpholino-4-oxo-4H-chromene-6-carboxamide] | 320 nM | 12 nM | 17 nM | 0.49 nM | > 90% | > 90%
4 | CN(C)C(=O)c1cc(CN2CC(C)(C)c3c(F)cc(F)cc32)c2oc(N3CCOCC3)cc(=O)c2c1 [Compound 34, 8-((4,6-difluoro-3,3-dimethylindolin-1-yl)methyl)-N,N-dimethyl-2-morpholino-4-oxo-4H-chromene-6-carboxamide] |  |  |  | 0.37 nM | 80 to 90% | 80 to 90%
5 | CC1Cc2c(F)cc(F)cc2N1C(C)c1cc(C(=O)N(C)C)cc2c(=O)cc(N3CCOCC3)oc12 (stereo not shown) [Compound 38, 8-(1-(4,6-difluoro-2-methylindolin-1-yl)ethyl)-N,N-dimethyl-2-morpholino-4-oxo-4H-chromene-6-carboxamide] |  |  |  | 0.52 nM | > 90% | > 90%
6 | O=C(c1cc(CN2CCc3c(F)cc(F)cc32)c2oc(N3CCOCC3)cc(=O)c2c1)N1CCCC1 [Compound 42, 8-((4,6-difluoroindolin-1-yl)methyl)-2-morpholino-6-(pyrrolidine-1-carbonyl)-4H-chromen-4-one] |  |  |  | 0.26 nM | > 90% | > 90%
7 | CN1CCN(C(=O)c2cc(CN3CCc4c(F)cc(F)cc43)c3oc(N4CCOCC4)cc(=O)c3c2)CC1 [Compound 44, 8-((4,6-difluoroindolin-1-yl)methyl)-6-(4-methylpiperazine-1-carbonyl)-2-morpholino-4H-chromen-4-one] |  |  |  | 1.3 nM | 80 to 90% | 80 to 90%
8 | CC(Nc1cc(F)cc(F)c1)c1cc(C(=O)N2CCC(N(C)C)C2)cn2c(=O)cc(N3CCOCC3)nc12 (stereo not shown) [Compound 48, 9-(1-((3,5-difluorophenyl)amino)ethyl)-7-(3-(dimethylamino)pyrrolidine-1-carbonyl)-2-morpholino-4H-pyrido[1,2-a]pyrimidin-4-one] | 730 nM | 40 nM | 130 nM | 0.26 nM | 80 to 90% | 80 to 90%
9 | C[C@@H](Nc1cc(F)cc(F)c1)c1cc(C(=O)N2CC[C@@H](N(C)C)C2)cn2c(=O)cc(N3CCOCC3)nc12 [Compound 48-P3, 9-((R)-1-((3,5-difluorophenyl)amino)ethyl)-7-((R)-3-(dimethylamino)pyrrolidine-1-carbonyl)-2-morpholino-4H-pyrido[1,2-a]pyrimidin-4-one] | 1100 nM | 8.9 nM | 92 nM |  |  | 
10 | C[C@@H](Nc1cc(F)cc(F)c1)c1cc(C(=O)N2CC[C@H](N(C)C)C2)cn2c(=O)cc(N3CCOCC3)nc12 [Compound 48-P4, 9-((R)-1-((3,5-difluorophenyl)amino)ethyl)-7-((S)-3-(dimethylamino)pyrrolidine-1-carbonyl)-2-morpholino-4H-pyrido[1,2-a]pyrimidin-4-one] | 1600 nM | 18 nM | 190 nM |  |  | 
11 | CC(Nc1cc(F)cc(F)c1)c1cc(C(=O)N2CC(N(C)C)C2)cn2c(=O)cc(N3CCOCC3)nc12 (stereo not shown) [Compound 49, 9-(1-((3,5-difluorophenyl)amino)ethyl)-7-(3-(dimethylamino)azetidine-1-carbonyl)-2-morpholino-4H-pyrido[1,2-a]pyrimidin-4-one] |  |  |  | 0.67 nM | 60 to 80% | 60 to 80%
12 | Cc1cc(C(C)N2c3cc(F)cc(F)c3CC2C)c2nc(N3CCOCC3)cc(=O)n2c1 (stereo not shown) [Compound 58, 9-(1-(4,6-difluoro-2-methylindolin-1-yl)ethyl)-7-methyl-2-morpholino-4H-pyrido[1,2-a]pyrimidin-4-one] |  |  |  | 2 nM | 80 to 90% | 80 to 90%
13 | Cc1cc(C(C)N2CCc3c(F)cc(F)cc32)c2nc(N3CCOCC3)cc(=O)n2c1 (stereo not shown) [Compound 59, 9-(1-(4,6-difluoroindolin-1-yl)ethyl)-7-methyl-2-morpholino-4H-pyrido[1,2-a]pyrimidin-4-one] |  |  |  | 0.61 nM | 80 to 90% | 80 to 90%

The next lines start with results.

Row | Kd [1] | Kd [2] | Kd [3] | Kd [4] | Structure (SMILES) | inhibition at 0.5 µM [5, 6] | inhibition at 0.5 µM [5, 7]
14 | 730 nM | 8 nM | 22 nM | 0.2 nM | CC(Nc1cc(F)cc(F)c1)c1cc(N2CCOCC2=O)cc2c(=O)cc(N3CCOCC3)oc12 (stereo not shown) [Compound 10, 4-(8-(1-((3,5-difluorophenyl)amino)ethyl)-2-morpholino-4-oxo-4H-chromen-6-yl)morpholin-3-one] | > 90% | > 90%
15 | 110 nM | 8.1 nM | 36 nM | 0.19 nM | CNS(=O)(=O)c1cc(C(C)Nc2cc(F)cc(F)c2)c2oc(N3CCOCC3)cc(=O)c2c1 (stereo not shown) [Compound 16, 8-(1-((3,5-difluorophenyl)amino)ethyl)-N-methyl-2-morpholino-4-oxo-4H-chromene-6-sulfonamide] | > 90% | > 90%
16 | 500 nM | 19 nM | 54 nM | 0.18 nM | CN(C)C(=O)c1cc(CN2CCc3c(F)cc(F)cc32)c2oc(N3CCOCC3)cc(=O)c2c1 [Compound 32, 8-((4,6-difluoroindolin-1-yl)methyl)-N,N-dimethyl-2-morpholino-4-oxo-4H-chromene-6-carboxamide] | > 90% | > 90%
17 |  |  |  | 0.072 nM | CN(C)CCNC(=O)c1cc(CN2CCc3c(F)cc(F)cc32)c2oc(N3CCOCC3)cc(=O)c2c1 [Compound 39, 8-((4,6-difluoroindolin-1-yl)methyl)-N-(2-(dimethylamino)ethyl)-2-morpholino-4-oxo-4H-chromene-6-carboxamide] | > 90% | > 90%
18 |  |  |  | 0.11 nM | C[C@@H](Nc1cc(F)cc(F)c1)c1cc(C(=O)N2CC[C@@H](N(C)C)C2)cn2c(=O)cc(N3CCOCC3)nc12 [Compound 50, 9-((R)-1-((3,5-difluorophenyl)amino)ethyl)-7-((R)-3-(dimethylamino)pyrrolidine-1-carbonyl)-2-morpholino-4H-pyrido[1,2-a]pyrimidin-4-one] | > 90% | > 90%
19 |  |  |  | 0.12 nM | C[C@@H](Nc1cc(F)cc(F)c1)c1cc(C(=O)N2CC[C@H](N(C)C)C2)cn2c(=O)cc(N3CCOCC3)nc12 [Compound 51, 9-((R)-1-((3,5-difluorophenyl)amino)ethyl)-7-((S)-3-(dimethylamino)pyrrolidine-1-carbonyl)-2-morpholino-4H-pyrido[1,2-a]pyrimidin-4-one] | > 90% | > 90%

Source: patent publication US20240166617A1, “PHOSPHOINOSITIDE 3 KINASE BETA INHIBITORS AND COMPOSITIONS AND METHODS THEREOF” (Geode Therapeutics Inc., priority 2021, published 2024)
